Key:
Assay type in all cases: cell-based, mouse
[1] = system: Rb1, Rb1; Pten, and Rb1; Zc3h13 GBM cells; assay: RNA-seq TMZ vs DMSO, overlap of differentially expressed genes between genotypes
Procedure: (§1) Temozolomide (TMZ) treatment, Cell viability assay, and RNAseq: After 7-9 days' culture under puromycin selection, lentiviruses-infected Nf1 and Rb1 knockout tumor cells were plated in triplicates into 96-well plate at a density of 2.5×10^3 cells per well, and ˜5×10^6 cells were collected at the same time and used for cutting efficiency analysis. One day after plating, either TMZ or DMSO was added at a concentration of 10 μM, 100 μM, 500 μM, 1 mM, and 2 mM. After 3 days of drug/vehicle treatment, cell viability was measured using CellTiter Glo (Promega) according to the manufactures' protocol. Briefly, the CellTiter Glo was equilibrated at room temperature for 1 h before use. The media of 96-well plates was aspirated, and then 50 μL fresh DMEM+10% FBS and 50 μL CellTiter Glo was added. The luminescent signals were readout using EnVision plate reader (PerkinElmer). For RNAseq samples preparation, cell lines harboring specific gene knockouts were cultured for 7-9 days under the selection pressure of puromycin, and then plated into 6-well plates at a density of 2×10^5 cells per well in triplicates. 24 h after plating, 1 mM TMZ or DMSO in fresh DEME+10% FBS was added and cultured for another 48 h. Then, cellular RNA of control or treated cells were extracted by adding 350 μL TRIzol Reagent (Invitrogen) directly into 6-well plates to lyse the cells, followed by gently shaking the plates and incubation for 5-10 min to complete and lysis and homogenization. Then, 70 μL chloroform was added, vigorously mixed, and centrifuged at 16,000 g for 15 min. Transfer the RNA containing aqueous phase to a new tube and further purified using RNeasy mini kit (Qiagen). After eluting RNA from column using Nuclease free water, the concentrations of sample RNA were normalized into 150-300 ng/uL for RNAseq.
Transcriptome profiling of different driver combinations in the presence and absence of chemotherapy: Mixtures of five sgRNAs targeting each gene were cloned as sgRNA minipool into the same astrocyte-specific AAV-CRISPR vector. After packaging, AAV minipools were stereotaxically injected into the lateral ventricle of LSL-Cas9 mice. Cell lines were derived from mouse GBMs by single-cell isolation, plating and culture in DMEM media. Additional driver mutations were introduced by lentiCRISPR where applicable. GBM cells with different drivers were treated with DMSO or TMZ for 48 h, and harvested for mRNA-seq for transcriptome profiling. […]
RNA-seq differential expression analysis: Strand-specific single-end RNA-seq read files were analyzed to obtain transcript level counts using Kallisto, with the settings --rf-stranded -b 100. […]

[2] = system: Rb1; Pten GBM cells; assay: RNA-seq differential expression, TMZ vs DMSO; details: 1 mM TMZ vs DMSO, 48 h
Procedure: as §1
(§2) Transcriptome profiling of different driver combinations in the presence and absence of chemotherapy: Mixtures of five sgRNAs targeting each gene were cloned as sgRNA minipool into the same astrocyte-specific AAV-CRISPR vector. After packaging, AAV minipools were stereotaxically injected into the lateral ventricle of LSL-Cas9 mice. Cell lines were derived from mouse GBMs by single-cell isolation, plating and culture in DMEM media. Additional driver mutations were introduced by lentiCRISPR where applicable. GBM cells with different drivers were treated with DMSO or TMZ for 48 h, and harvested for mRNA-seq for transcriptome profiling. Briefly, total RNA was extracted from cancer cells derived from AAV-CRISPR minipools induced GBM treated with DMSO or TMZ, using commercially available kits (Qiagen/Thermofisher). PolyA-mRNA library was constructed using Illumina TruSeq mRNA library prep kit, and sequenced on Illumina Hiseq 2500 and/or Hiseq 4000 platform.
(§3) RNA-seq differential expression analysis: Strand-specific single-end RNA-seq read files were analyzed to obtain transcript level counts using Kallisto, with the settings --rf-stranded -b 100. The counts were subsequently passed to the tximport R package to collapse to gene level counts. Pairwise differential expression analysis between groups was then performed using edgeR with default settings.

[3] = system: Rb1; Zc3h13 GBM cells; assay: RNA-seq differential expression, TMZ vs DMSO; details: 1 mM TMZ vs DMSO, 48 h
Procedure: as §1, §2, §3

[4] = system: Rb1 GBM cells; assay: RNA-seq differential expression, TMZ vs DMSO; details: 1 mM TMZ vs DMSO, 48 h
Procedure: as §1, §2, §3

[5] = shared by Rb1, Rb1, Pten, Rb1, Zc3h13

Cn1nnc2c(C(N)=O)ncn2c1=O [TMZ, temozolomide]
genes significantly reduced upon TMZ treatment in Rb1; Zc3h13 and Rb1; Pten cells, but not in Rb1 cells [1]: 37 genes | genes upregulated upon TMZ treatment in Rb1; Zc3h13 and Rb1; Pten cells, but not in Rb1 cells [1]: 60 genes | genes downregulated among all 3 genotypes upon TMZ treatment [1, 5]: 69 genes | genes upregulated in all 3 groups upon TMZ treatment [1, 5]: 42 genes | genes significantly higher in DMSO-treated cells [2]: 313 genes | genes significantly higher in TMZ-treated cells [2]: 345 genes | genes significantly higher in DMSO-treated cells [3]: 166 genes | genes significantly higher in TMZ-treated cells [3]: 703 genes | genes significantly higher in DMSO-treated cells (TMZ-reduced genes) [4]: 332 genes | genes significantly higher in TMZ-treated cells (TMZ-induced genes) ([4]; adjusted p<0.05, log fold change ≥1 or ≤−1): 352 genes
